Columns and labels:
Format in all cases: cell-based
[1] = test system: HUMAN RSV-A (“LONG” STRAIN); experiment: RSV-A assay (CPE, ATPlite) in Hep-2 cells; settings: human respiratory syncytial virus, 120 h, MOI 0.1, 5-day incubation
How it was run: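 Hep-2 cells (8,000/well) given 2-fold serial compound dilutions in duplicate, then infected with RSV-A Long strain at MOI 0.1. After 5 days, virus-induced cytopathic effect quantified as cellular ATP by ATPlite luminescence, against virus-only and uninfected controls; EC50 reported in ranges.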

[2] = test system: hMPV A2 TN/94-49; experiment: HMPV antiviral assay Method 1 (LLC-MK2 cells, ATP-Lite); settings: hMPV A2 TN/94-49, LLC-MK2 cells
How it was run: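 LLC-MK2 cells infected in suspension with hMPV A2 TN/94-49 at MOI 0.005, 5,000 cells/well, in serum-free OptiMEM with 2 μg/mL TPCK-trypsin (final) and CaCl2; compounds in duplicate, 10 points, 2 μM top, 2.5-fold dilutions. After 7 days at 37 °C, cell health by ATP-Lite luminescence; EC50 by four-parameter fit.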

[3] = test system: hMPV A2 TN/94-49; experiment: HMPV antiviral assay Method 2 (LLC-MK2 cells with CP-100-356, ATP-Lite); settings: hMPV A2 TN/94-49, LLC-MK2 cells, 4 μM CP-100-356, Method 2
How it was run: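 LLC-MK2 cells infected in suspension with hMPV A2 TN/94-49 at MOI 0.16, in serum-free OptiMEM with final 2 μg/mL TPCK-trypsin and 2 μM CP-100-356 (P-gp inhibitor). Compounds tested in duplicate, top 200 nM, 2.5-fold, 10 points; 7 days at 37 °C. ATP-Lite cell health normalised to controls; EC50 by four-parameter fit.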

| EC50 [1] | EC50 [2] | EC50 [3] | SMILES |
| --- | --- | --- | --- |
| < 0.2 µM | > 0.5 µM | > 0.2 µM | COc1cc(C(=O)NC[C@@](O)(c2ccc(C(F)(F)F)cc2)c2cc3c(c(-c4cc(Cl)c(F)cc4F)n2)OC[C@]3(C)C(N)=O)cc2cn(C3CC3)nc12 [Example 130] |
| < 0.2 µM | < 0.5 µM | < 0.2 µM | COc1cc(C(=O)NC[C@@](O)(c2ccccc2)c2cc3c(c(-c4cccc(Cl)c4Cl)n2)OC[C@]3(C)C(N)=O)cc2cn(C3(F)CC3)nc12 [Example 262] |
| < 0.2 µM | < 0.5 µM | < 0.2 µM | COc1cc(C(=O)NC[C@@](O)(c2ccccc2)c2cc3c(c(-c4cc(Cl)c(F)cc4F)n2)OC[C@]3(C)C(N)=O)cc2sc(N)nc12 [Example 157] |
| < 0.2 µM | < 0.5 µM | < 0.2 µM | COc1cc(C(=O)NCC(O)(c2cc3c(c(-c4cc(Cl)c(F)cc4F)n2)OC[C@]3(C)C(N)=O)c2ccc(C)s2)cc2cn(C3CC3)nc12 (stereo partly drawn) [Example 470] |
| < 0.2 µM | < 0.5 µM | < 0.2 µM | COc1cc(C(=O)NC[C@](O)(c2cc3c(c(-c4ccc(F)c(C)c4Cl)n2)OC[C@]3(C)C(N)=O)C2CC2)cc2cn(C3CC3)nc12 [Example 69] |
| < 0.2 µM | < 0.5 µM | < 0.2 µM | COc1cc(C(=O)NC[C@@](O)(c2ccccc2)c2cc3c(c(-c4cc(Cl)ccc4F)n2)OC[C@]3(C)C(N)=O)cc2cc(C3CC3)nn12 [Example 146] |
| < 0.2 µM | < 0.5 µM | < 0.2 µM | COc1cc(C(=O)NC[C@](O)(c2cc3c(c(-c4ccc5c(c4)OC(F)(F)O5)n2)OC[C@]3(C)C(N)=O)C2CC2)cc2cc(C)c(F)nc12 [Example 22] |
| < 0.2 µM | < 0.5 µM | < 0.2 µM | COc1cc(C(=O)NC[C@](O)(c2cc3c(c(-c4cc(F)c(F)cc4F)n2)OC[C@]3(C)C(N)=O)C2CC2)cc2cc(C)c(F)nc12 [Example 21] |
| < 0.2 µM | > 0.5 µM | < 0.2 µM | COc1cc(C(=O)NC[C@](O)(c2cc3c(c(-c4cc(F)c(F)cc4F)n2)OC[C@]3(C)C(N)=O)C2CC(F)(F)C2)cc2cn(C(F)F)nc12 [Example 33] |
| < 0.2 µM | < 0.5 µM | < 0.2 µM | COc1cc(C(=O)NC[C@@](O)(c2cccc(F)c2)c2cc3c(c(-c4cc(C(F)(F)F)c(F)cc4F)n2)OC[C@]3(C)C(N)=O)cc2oc(C3CC3)nc12 [Example 297] |
| < 0.2 µM | < 0.5 µM | < 0.2 µM | COc1cc(C(=O)NC[C@@](O)(c2ccc(F)cc2)c2cc3c(c(-c4cc(Cl)c(F)cc4F)n2)OC[C@]3(C)C(N)=O)cc2cn(C3(F)CC3)nc12 [Example 14] |
| < 0.2 µM | < 0.5 µM | < 0.2 µM | COc1cc(C(=O)NC[C@@](O)(c2cccc(F)c2)c2cc3c(c(-c4cc(Cl)c(F)cc4F)n2)OC[C@]3(C)C(N)=O)cc2cc(C3CC3)nn12 [Example 133] |
| < 0.2 µM | < 0.5 µM | < 0.2 µM | COc1cc(C(=O)NC[C@@](O)(c2cccc(F)c2)c2cc3c(c(-c4cc(C(F)(F)F)c(F)cc4F)n2)OC[C@]3(C)C(N)=O)cc2cn(C3(F)CC3)nc12 [Example 296] |
| < 0.2 µM | < 0.5 µM | < 0.2 µM | COc1cc(C(=O)NC[C@](O)(c2cc3c(c(-c4ccc(F)c(Cl)c4Cl)n2)OC[C@]3(C)C(N)=O)C(F)(F)F)cc2cn(C(F)F)nc12 [Example 66] |
| < 0.2 µM | < 0.5 µM | < 0.2 µM | COc1cc(C(=O)NC[C@@](O)(c2ccccc2)c2cc3c(c(-c4ccc(F)c(Cl)c4Cl)n2)OC[C@]3(C)C(N)=O)cc2cn(C3(F)CC3)nc12 [Example 259] |
| < 0.2 µM | < 0.5 µM | < 0.2 µM | COc1cc(C(=O)NC[C@@](O)(c2cccc(F)c2)c2cc3c(c(-c4cc(C(F)(F)F)c(F)cc4F)n2)OC[C@]3(C)C(N)=O)cc2cn(C3CC3)nc12 [Example 295] |
| < 0.2 µM | < 0.5 µM | < 0.2 µM | COc1cc(C(=O)NC[C@](O)(c2cc3c(c(-c4cc(Cl)c(F)cc4F)n2)OC[C@]3(C)C(N)=O)c2nccs2)cc2cn(C3CC3)nc12 [Example 475] |
| < 0.2 µM | < 0.5 µM | < 0.2 µM | C[C@]1(C(N)=O)COc2c1cc([C@@](O)(CNC(=O)c1cc(OC3CC3)c3nn(C4CC4)cc3c1)C1CC1)nc2-c1ccc(F)c(Cl)c1Cl [Example 23] |
| < 0.2 µM | < 0.5 µM | < 0.2 µM | COc1cc(C(=O)NC[C@@](O)(c2ccccc2)c2cc3c(c(-c4ccc(F)c(F)c4Cl)n2)OC[C@]3(C)C(N)=O)cc2cn(C(F)F)nc12 [Example 213] |

| EC50 [1] | EC50 [2] | EC50 [3] | SMILES |
| --- | --- | --- | --- |
| < 0.2 µM | < 0.5 µM | < 0.2 µM | COc1cc(C(=O)NC[C@@](O)(c2ccccc2)c2cc3c(c(-c4cc(Cl)c(F)cc4F)n2)OC[C@]3(C)C(N)=O)cc2cc(Br)cnc12 [Example 185] |
| < 0.2 µM | < 0.5 µM | < 0.2 µM | COc1cc(C(=O)NC[C@@](O)(c2ccccc2)c2cc3c(c(-c4cccc(Cl)c4Cl)n2)OC[C@]3(C)C(N)=O)cc2cn(C3CC3)nc12 [Example 260] |
| < 0.2 µM | < 0.5 µM | < 0.2 µM | COc1cc(C(=O)NC[C@@](O)(c2ccsc2)c2cc3c(c(-c4cc(F)c(F)cc4F)n2)OC[C@]3(C)C(N)=O)cc2cn(C3(F)CC3)nc12 [Example 179] |
| < 0.2 µM | < 0.5 µM | < 0.2 µM | COc1cc(C(=O)NC[C@@](O)(c2ccc(F)cc2)c2cc3c(c(-c4ccc(F)c(Cl)c4Cl)n2)OC[C@]3(C)C(N)=O)cc2cn(C3(F)CC3)nc12 [Example 43] |
| < 0.2 µM | > 0.5 µM | < 0.2 µM | COc1cc(C(=O)NC[C@@](O)(c2ccccc2)c2cc3c(c(-c4cc(Cl)c(F)cc4F)n2)OC[C@]3(C)C(N)=O)cc2cc(C(F)F)nnc12 [Example 186] |
| < 0.2 µM | > 0.5 µM | < 0.2 µM | C[C@@H](O)COc1cc(C(=O)NC[C@](O)(c2cc3c(c(-c4ccc(F)c(Cl)c4F)n2)OC[C@]3(C)C(N)=O)C2CC2)cc2cn(C3CC3)nc12 [Example 38] |
| < 0.2 µM | < 0.5 µM | < 0.2 µM | COc1cc(C(=O)NC[C@@](O)(c2ccccc2)c2cc3c(c(-c4ccc(F)c(Cl)c4Cl)n2)OC[C@]3(C)C(N)=O)cc2cn(C(F)F)nc12 [Example 258] |
| < 0.2 µM | < 0.5 µM | < 0.2 µM | COc1cc(C(=O)NC[C@@](O)(c2ccc(F)cc2)c2cc3c(c(-c4ccc5c(c4Cl)OC(F)(F)O5)n2)OC[C@]3(C)C(N)=O)cc2cn(C(F)F)nc12 [Example 264] |
| < 0.2 µM | < 0.5 µM | < 0.2 µM | COc1cc(C(=O)NC[C@@](O)(c2cccc(F)c2)c2cc3c(c(-c4cccc(Cl)c4Cl)n2)OC[C@]3(C)C(N)=O)cc2oc(C)nc12 [Example 293] |
| < 0.2 µM | < 0.5 µM | < 0.2 µM | COc1cccc([C@](O)(CNC(=O)c2cc(OC)c3nn(C4CC4)cc3c2)c2cc3c(c(-c4cc(Cl)c(F)cc4F)n2)OC[C@]3(C)C(N)=O)c1 [Example 160] |
| < 0.2 µM | < 0.5 µM | < 0.2 µM | COc1cc(C(=O)NC[C@@](O)(c2ccccc2)c2cc3c(c(-c4ccc5c(c4)OC(F)(F)O5)n2)OC[C@]3(C)C(N)=O)cc2cn(C3(F)CC3)nc12 [Example 19] |
| < 0.2 µM | < 0.5 µM | < 0.2 µM | COc1cc(C(=O)NC[C@@](O)(c2cccc(F)c2)c2cc3c(c(-c4cc(Cl)c(F)cc4F)n2)OC[C@]3(C)C(N)=O)cc2cn(C3CC3)nc12 [Example 132] |
| < 0.2 µM | < 0.5 µM | < 0.2 µM | COc1cc(C(=O)NC[C@@](O)(c2ccccc2)c2cc3c(c(-c4cc(Cl)c(F)cc4F)n2)OC[C@]3(C)C(N)=O)cc2cn(C3(F)CC3)nc12 [Example 158] |
| < 0.2 µM | < 0.5 µM | < 0.2 µM | C[C@]1(C(N)=O)COc2c1cc([C@@](O)(CNC(=O)c1cc(OC3CC3)c3nn(C(F)F)cc3c1)c1ccc(F)cc1)nc2-c1ccc2c(c1Cl)OC(F)(F)O2 [Example 265] |
| < 0.2 µM | < 0.5 µM | < 0.2 µM | COc1cc(C(=O)NC[C@@](O)(c2ccccc2)c2cc3c(c(-c4cc(Cl)c(F)cc4F)n2)OC[C@]3(C)C(N)=O)cc2cc(Cl)cnc12 [Example 187] |
| < 0.2 µM | < 0.5 µM | < 0.2 µM | COc1cc(C(=O)NC[C@@](O)(c2ccc(F)cc2)c2cc3c(c(-c4ccc(F)c(Cl)c4Cl)n2)OC[C@]3(C)C(N)=O)cc2cn(C3CC3)nc12 [Example 41] |
| < 0.2 µM | < 0.5 µM | < 0.2 µM | COc1cc(C(=O)NC[C@@](O)(c2ccccc2)c2cc3c(c(-c4cc(F)c(F)cc4F)n2)OC[C@]3(C)C(N)=O)cc2cn(C3CC3)nc12 [Example 171] |
| < 0.2 µM | < 0.5 µM | < 0.2 µM | COc1cc(C(=O)NC[C@@](O)(c2cccc(F)c2)c2cc3c(c(-c4ccc(F)c(Cl)c4Cl)n2)OC[C@]3(C)C(N)=O)cc2cn(C(F)F)nc12 [Example 270] |
| < 0.2 µM | > 0.5 µM | < 0.2 µM | COc1cc(C(=O)NC[C@](O)(c2cc3c(c(-c4cc(F)c(F)cc4C)n2)OC[C@]3(C)C(N)=O)C2CC2)cc2cn(C3CC3)nc12 [Example 50] |

Source: patent US12358921B2, “Antiviral heterocyclic compounds” (priority 2022, dated 2025)
